Laboratory results reported in PMC12257544, “Fluorescent Isostere (Fluostere) of the Carboxylate: Design of hDHODH Fluorescent Inhibitors as Proof of Concept” (Journal of Medicinal Chemistry, 2025).
Values joined by “and” are separate entries in the source; they are usually repeats but may differ in a detail not shown here. Equal values may be shown once.

What was measured:
[1] = Photophysical characterization (absorption, emission, QY, lifetime); type: physicochemical; conditions: for Lifetime / QY (luminescence quantum yield) / Stokes shift / λabs / λem: in ACN
Procedure: UV–Vis absorption spectra were recorded on a Cary60 spectrometer. Photoemission spectra, luminescence lifetimes, and quantum yields were acquired with a HORIBA Jobin Yvon IBH Fluorolog-TCSPC spectrofluorometer equipped with a Quanta-φ integrating sphere. […] Emission-decay data were collected in 2048 channels to 10000 counts in the peak channel. IRF was measures using colloidal silica suspension in H2O to scatter light. Data were analyzed with the software DAS6 (TCSPC decay-analysis software) using a nonlinear least-squares method to fit of the decay to a sum of exponentials. The value of χ^2, residuals and the autocorrelation function (Durbin-Watson parameter) were used to determine the quality of the fit. For measurements in the presence of hDHODH, 11a was incubated, at 1 μM concentration in TRIS Buffer 0.1 mM (pH 8) with 0.1% DMSO, alone or with different concentrations of recombinant protein ranging from 31.5 to 504 nM concentration. After 5 min incubation UV–Vis absorption spectra were recorded on a Cary60 spectrophotometer and photoemission spectra were acquired with a HORIBA Jobin Yvon IBH Fluorolog-TCSPC spectrofluorometer with excitation λ of 366 nm and maximum of emission at 500 nm; a.u. data were analyzed with GraphPad Prism using One Site – Specific Binding equation.

[2] = design: method as in doi:10.1021/cr00002a004; conditions: substituent in position 3; cited from earlier work

Structure (SMILES)	Lifetime [1] [ns]	QY (luminescence quantum yield) [1]	Stokes shift [1] [cm^–1]	λabs [1] [nm]	λem [1]	σ p (Hammett substituent constant) [2]	emission in the solid state [1]
COc1nn2ccccc2c1-c1ccc2ccccc2n1 [Compound 7a, 2-(2-Methoxypyrazolo[1,5-a]pyridin-3-yl)quinoline]	2.8	0.52	3330	370	422 nm		
COc1nn2ccccc2c1/C=C/c1ccc([N+](=O)[O-])cc1 [Compound 5e, (E)-2-methoxy-3-(4-nitrostyryl) Pyrazolo[1,5-a]pyridine]	<0.1	<0.01	8368	426	662 nm		
COc1nn2ccccc2c1/C=C/c1ccc(SC)cc1 [Compound 5b, (E)-2-methoxy-3-(4-(methylthio)styryl)pyrazolo[1,5-a]pyridine]	3.5	<0.01	8964	350	510 nm		
COc1nn2ccccc2c1-c1ccc2ncccc2c1 [Compound 7c, 6-(2-Methoxypyrazolo[1,5-a]pyridin-3-yl)quinoline]	5.3	0.24	6832	350	460 nm		
COc1nn2c(Cl)cccc2c1-c1ccc2ncccc2c1 [Compound 9a, 6-(7-Chloro-2-methoxypyrazolo[1,5-a]pyridin-3-yl)quinoline]	5.1	<0.01	6832	350			
CCOC(=O)c1c(=O)n(Cc2ccccc2)n2ccccc12 [Compound 2d, Ethyl 1-benzyl-2-oxo-1,2-dihydropyrazolo[1,5-a]pyridine-3-carboxylate]	12	0.30	6414	348	448 nm		
CCOC(=O)c1c(O)nn2c(N(C)C)cccc12 [Compound 8a, Ethyl 7-(Dimethylamino)-2-hydroxypyrazolo[1,5-a]pyridine-3-carboxylate]	3.7	0.06	5255	338	411 nm		
COc1nn2ccccc2c1NS(C)(=O)=O [Compound 3b, N-(2-methoxypyrazolo[1,5-a]pyridin-3-yl)methanesulfonamide]	2	<0.01	10379	315	468 nm	0.03	
COc1nn2ccccc2c1/C=C/c1ccc(S(C)(=O)=O)cc1 [Compound 5c, (E)-2-methoxy-3-(4-(methylsulfonyl)styryl)pyrazolo[1,5-a]pyridine]	3.5	<0.01	5750	370	470 nm		
COC(=O)/C(C#N)=C/c1c(OC)nn2ccccc12 [Compound 4b, Methyl (e)-2-cyano-3-(2-methoxypyrazolo[1,5-a]pyridin-3-yl)acrylate]				395	n.e.		yellow light
COc1nn2ccccc2c1-c1ccc2ccccc2c1 [Compound 6, 2-Methoxy-3-(naphthalen-2-yl)pyrazolo[1,5-a]pyridine]	4.3	0.13	7480	345	465 nm		
CCOC(=O)c1c(OCc2ccccc2)nn2ccccc12 [Compound 2c, Ethyl 2-(Benzyloxy) Pyrazolo[1,5-a]pyridine-3-carboxylate]	9	0.43	5942	310	380 nm		
COc1nn2ccccc2c1C=C(C#N)C#N [Compound 4a, 2-((2-Methoxypyrazolo[1,5-a]pyridin-3-yl)methylene)]				393	n.e.		yellow light
O=[N+]([O-])c1c(O)nn2ccccc12 [Compound 3, 3-Nitropyrazolo[1,5-a]pyridin-2-ol]				361	n.e. ^a	0.78	
COc1nn2ccccc2c1NC(C)=O [Compound 3a, N-(2-methoxypyrazolo[1,5-a]pyridine-3-yl)acetamide]		<0.01	10169	312	457 nm	0.00	
COc1nn2ccccc2c1-c1ccc2cccnc2c1 [Compound 7b, 7-(2-Methoxypyrazolo[1,5-a]pyridin-3-yl)quinoline]	5.5	0.42	5868	356	450 nm		
CCOC(=O)c1c(=O)n(C)n2ccccc12 [Compound 2b, Ethyl 1-methyl-2-oxo-1,2-dihydropyrazolo[1,5-a]pyridine-3-carboxylate]	11	0.26	6514	345	445 nm		
COc1nn2ccccc2c1/C=C/c1ccc(C#N)cc1 [Compound 5d, (E)-4-(2-(2-methoxypyrazolo[1,5-a]pyridin-3-yl)vinyl)benzonitrile]	3.5	<0.01	5178	378	470 nm		
COc1nn2ccccc2c1/C=C/c1ccccc1 [Compound 5a, (E)-2-methoxy-3-styrylpyrazolo[1,5-a]pyridine]	3.5	<0.01	9851	335	500 nm		
Cn1c(=O)cc2ccccn21 [Compound 1b, 1-Methylpyrazolo[1,5-a]pyridin-2(1H)-one]				335	465 nm		
COc1nn2c(N(C)C)cccc2c1-c1ccc2ncccc2c1 [Compound 9b, 2-Methoxy-N,N-dimethyl-3-(quinolin-6-yl)pyrazolo[1,5-a]pyridin-7-amine]	2.7	0.10	9508	362	552 nm		
COc1cc2ccccn2n1 [Compound 1a, 2-Methoxypyrazolo[1,5-a]pyridine]				305	400 nm		
CCOC(=O)c1c(OC)nn2ccccc12 [Compound 2a, Ethyl 2-methoxypyrazolo[1,5-a]pyridine-3-carboxylate]	9	0.45	5942	310	380 nm		
Oc1nn2ccccc2c1/C=C/c1cc(F)c(-c2ccccc2)c(F)c1F [Compound 11b]	<1	0.08	3531	450	542 nm and 535 nm		
